From patent US20240299367A1, “METHODS OF TREATING ACUTE RESPIRATORY DISTRESS SYNDROME WITH ACTIVATORS OF TIE-2” (AERPIO PHARMACEUTICALS, INC., priority 2020, published 2024)
Read-outs that look alike come from different tables or passages of the source.

Tests used:
[1] = 0.9% saline, cited from earlier work
[2] = tested on: SARS-COV, MERS-COV, and SARS-CoV-2; conditions: cell culture and animal models; cited from earlier work
HPTPβ = HPTPβ (Homo sapiens (Human), UniProt P23467); assay: HPTPβ inhibitory activity (IC50); assay type: biochemical
Sequence of HPTPβ (P23467 23-1997): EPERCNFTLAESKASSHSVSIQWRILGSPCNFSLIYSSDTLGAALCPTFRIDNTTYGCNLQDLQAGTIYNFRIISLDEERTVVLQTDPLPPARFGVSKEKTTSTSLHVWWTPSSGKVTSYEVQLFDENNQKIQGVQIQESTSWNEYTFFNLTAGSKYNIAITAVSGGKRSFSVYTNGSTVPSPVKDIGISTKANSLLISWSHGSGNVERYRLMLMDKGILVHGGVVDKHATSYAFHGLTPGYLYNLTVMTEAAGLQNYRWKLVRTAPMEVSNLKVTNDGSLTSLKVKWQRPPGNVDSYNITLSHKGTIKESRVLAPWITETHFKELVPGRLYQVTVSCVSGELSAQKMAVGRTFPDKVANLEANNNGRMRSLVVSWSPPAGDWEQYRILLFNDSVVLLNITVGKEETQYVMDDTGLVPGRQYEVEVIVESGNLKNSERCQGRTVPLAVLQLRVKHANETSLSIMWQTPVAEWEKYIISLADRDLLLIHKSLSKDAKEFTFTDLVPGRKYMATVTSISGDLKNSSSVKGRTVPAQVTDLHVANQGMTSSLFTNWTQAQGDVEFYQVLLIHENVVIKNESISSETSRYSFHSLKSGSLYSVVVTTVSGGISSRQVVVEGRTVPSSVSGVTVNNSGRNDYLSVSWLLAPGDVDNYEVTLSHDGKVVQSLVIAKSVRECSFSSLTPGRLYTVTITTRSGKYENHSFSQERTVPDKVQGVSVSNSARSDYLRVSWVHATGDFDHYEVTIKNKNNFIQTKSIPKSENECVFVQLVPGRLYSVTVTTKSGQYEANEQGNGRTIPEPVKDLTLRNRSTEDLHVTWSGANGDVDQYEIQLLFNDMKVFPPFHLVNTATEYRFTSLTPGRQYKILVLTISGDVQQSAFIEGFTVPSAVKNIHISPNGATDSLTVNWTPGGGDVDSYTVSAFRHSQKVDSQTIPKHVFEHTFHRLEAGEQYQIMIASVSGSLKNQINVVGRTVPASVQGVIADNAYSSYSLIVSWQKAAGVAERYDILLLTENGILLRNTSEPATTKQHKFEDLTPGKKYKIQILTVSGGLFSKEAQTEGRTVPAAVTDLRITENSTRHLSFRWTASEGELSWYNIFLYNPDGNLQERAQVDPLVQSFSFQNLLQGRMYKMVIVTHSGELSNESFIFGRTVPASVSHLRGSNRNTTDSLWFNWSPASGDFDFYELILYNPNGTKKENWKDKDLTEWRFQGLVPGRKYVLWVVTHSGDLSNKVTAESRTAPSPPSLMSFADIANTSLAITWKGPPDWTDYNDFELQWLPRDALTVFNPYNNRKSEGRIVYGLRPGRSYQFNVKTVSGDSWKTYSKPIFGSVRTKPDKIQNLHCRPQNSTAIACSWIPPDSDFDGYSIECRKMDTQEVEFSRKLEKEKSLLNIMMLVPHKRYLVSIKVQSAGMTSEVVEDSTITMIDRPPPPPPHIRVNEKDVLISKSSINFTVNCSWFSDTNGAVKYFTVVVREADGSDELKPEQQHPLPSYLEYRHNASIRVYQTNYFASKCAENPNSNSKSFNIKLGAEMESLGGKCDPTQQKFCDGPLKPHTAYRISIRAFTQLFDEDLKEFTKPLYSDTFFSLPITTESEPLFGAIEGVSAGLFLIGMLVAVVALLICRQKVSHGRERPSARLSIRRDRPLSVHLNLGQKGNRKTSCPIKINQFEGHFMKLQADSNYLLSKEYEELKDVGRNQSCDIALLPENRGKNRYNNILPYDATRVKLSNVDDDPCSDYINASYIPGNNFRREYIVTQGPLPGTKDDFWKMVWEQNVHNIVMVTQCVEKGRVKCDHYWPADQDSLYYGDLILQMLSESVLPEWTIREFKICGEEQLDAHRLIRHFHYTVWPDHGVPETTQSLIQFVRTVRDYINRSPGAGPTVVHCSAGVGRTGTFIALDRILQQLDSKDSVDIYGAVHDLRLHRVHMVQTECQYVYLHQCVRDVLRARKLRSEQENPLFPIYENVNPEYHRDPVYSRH

[3] = tested on: polymicrobial septic shock; assay: Cecal ligation and puncture (CLP) model of sepsis, survival; assay type: in vivo, Sprague Dawley rats; conditions: rats, SC BID days 1-5, monitored 10 days, Cpd 1 10 mg/kg, IM 20 mg/kg
[4] = Urine albumin/creatinine ratio (UACR) in Phase 2 and Phase 2b studies; assay type: in vivo, human; conditions: Phase 2, patients with evidence of diabetic nephropathy

In the case of `CCC(CC)COC(=O)[C@H](C)N[P@](=O)(OC[C@H]1O[C@@](C#N)(c2ccc3c(N)ncnn23)[C@H](O)[C@@H]1O)Oc1ccccc1` [Remdesivir], the “storage time of diluted solution” value ([1]; refrigerated (2° C. to 8° C.)) is given as 24 h, the “storage time of diluted solution” value ([1]; room temperature (20° C. to 25° C.)) is given as “up to 4 hours” and the antiviral activity [2] is given as “exhibits activity in cell culture and animal models”.

For `COC(=O)Cc1csc([C@H](Cc2ccc(NS(=O)(=O)O)cc2)NC(=O)OC(C)(C)C)n1` [AA70, (S)-4-(2-(tert-Butoxycarbonyl)-2-(4-(2-(2-methoxy-2-oxoyethylamino)-2-oxoethyl)thiazole-2-yl)ethyl)phenylsulfamic acid], the IC50 (HPTPβ) was 132 nM.

Molecule `Cc1nc([C@H](Cc2ccc(NS(=O)(=O)O)cc2)NC(=O)OC(C)(C)C)cs1` [AA64] has an IC50 (HPTPβ) of 33 nM.

`C[C@@H](O)[C@H]1C(=O)N2C(C(=O)O)=C(SCCN=CN)C[C@H]12` [IM, imipenem] showed a survival [3] of 81%.

B1: ranibizumab (antibody, chains of the INN, looked up, V domains shown)
VH: EVQLVESGGGLVQPGGSLRLSCAASGYDFTHYGMNWVRQAPGKGLEWVGWINTYTGEPTYAADFKRRFTFSLDTSKSTAYLQMNSLRAEDTAVYYCAKYPYYYGTSHWYFDVWGQGTLVTVSS
VL: DIQLTQSPSSLSASVGDRVTITCSASQDISNYLNWYQQKPGKAPKVLIYFTSSLHSGVPSRFSGSGSGTDFTLTISSLQPEDFATYYCQQYSTVPWTFGQGTKVEIK
modifications: Fab
notes: anti-VEGF agent, standard-of-care intravitreal injection
With B1 the UACR change [4] was “increase”.
